Values of other authors in patent US12630801B2, “Stem cell-derived Schwann cells” (MEMORIAL SLOAN-KETTERING CANCER CENTER, priority 2016, dated 2026).

How the values were obtained:
Conditions in all cases: Yu et al. 2008; Cuny et al. 2008
ALK3 = ALK3 (Homo sapiens, UniProt P36894)
ALK2 = target: T1, ALK2 (Homo sapiens, UniProt Q04771)
T1 sequence (Q04771 21-509): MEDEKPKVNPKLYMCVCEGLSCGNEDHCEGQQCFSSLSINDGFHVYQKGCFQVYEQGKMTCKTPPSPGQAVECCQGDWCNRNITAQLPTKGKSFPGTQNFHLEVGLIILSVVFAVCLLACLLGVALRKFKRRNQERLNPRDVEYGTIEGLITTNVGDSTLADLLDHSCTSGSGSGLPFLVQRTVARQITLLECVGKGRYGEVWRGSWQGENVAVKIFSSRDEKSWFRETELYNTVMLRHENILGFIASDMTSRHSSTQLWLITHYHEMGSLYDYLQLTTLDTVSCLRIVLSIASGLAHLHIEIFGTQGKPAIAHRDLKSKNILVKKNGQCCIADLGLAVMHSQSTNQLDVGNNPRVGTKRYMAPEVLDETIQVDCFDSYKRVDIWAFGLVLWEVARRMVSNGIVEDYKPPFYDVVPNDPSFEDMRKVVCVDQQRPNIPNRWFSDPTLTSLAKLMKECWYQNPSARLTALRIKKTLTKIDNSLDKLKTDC

ALK6 = ALK6 (Homo sapiens, UniProt O00238)
Chain of ALK6 (O00238 14-502): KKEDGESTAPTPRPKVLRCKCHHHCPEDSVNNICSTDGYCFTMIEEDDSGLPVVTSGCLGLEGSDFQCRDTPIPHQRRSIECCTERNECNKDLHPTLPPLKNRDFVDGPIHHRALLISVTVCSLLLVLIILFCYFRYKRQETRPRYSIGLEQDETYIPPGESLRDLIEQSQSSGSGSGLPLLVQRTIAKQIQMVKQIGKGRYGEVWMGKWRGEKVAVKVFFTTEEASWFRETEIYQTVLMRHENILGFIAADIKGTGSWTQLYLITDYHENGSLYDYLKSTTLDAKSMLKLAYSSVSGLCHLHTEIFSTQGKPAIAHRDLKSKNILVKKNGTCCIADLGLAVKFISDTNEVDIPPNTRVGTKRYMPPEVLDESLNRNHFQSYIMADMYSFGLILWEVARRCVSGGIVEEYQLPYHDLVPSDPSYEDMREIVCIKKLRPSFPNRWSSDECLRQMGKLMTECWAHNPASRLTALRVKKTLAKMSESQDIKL

Chain of ALK3 (P36894 24-532, species assumed): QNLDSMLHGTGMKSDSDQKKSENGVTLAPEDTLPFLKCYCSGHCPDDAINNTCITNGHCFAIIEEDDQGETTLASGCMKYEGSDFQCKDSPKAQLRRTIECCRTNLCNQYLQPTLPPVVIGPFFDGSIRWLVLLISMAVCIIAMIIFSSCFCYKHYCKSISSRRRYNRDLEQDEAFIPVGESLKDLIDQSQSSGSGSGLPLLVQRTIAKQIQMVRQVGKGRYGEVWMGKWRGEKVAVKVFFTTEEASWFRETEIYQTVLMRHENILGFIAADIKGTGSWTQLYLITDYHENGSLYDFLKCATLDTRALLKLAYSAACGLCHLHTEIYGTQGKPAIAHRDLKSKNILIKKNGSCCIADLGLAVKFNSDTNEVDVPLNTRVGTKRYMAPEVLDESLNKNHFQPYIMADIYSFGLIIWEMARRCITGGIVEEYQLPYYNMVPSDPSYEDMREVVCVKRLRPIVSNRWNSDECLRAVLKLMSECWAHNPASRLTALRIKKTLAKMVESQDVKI

c1ccc2c(-c3cnn4cc(-c5ccc(N6CCNCC6)cc5)cnc34)ccnc2c1 [LDN193189, 4-(6-(4-(piperazin-1-yl)phenyl)pyrazolo[1,5-a]pyrimidin-3-yl)quinoline]
highly potent small-molecule inhibitor: inhibition of ALK3 (ALK3) | inhibition of ALK2 (ALK2) | inhibition of ALK6 (ALK6)
